Consider 20 molecules from US12570673B2, “c-Myc protein inhibitor, and preparation method therefor and use thereof” (SUZHOU KINTOR PHARMACEUTICALS, INC., priority 2019, dated 2026).

This assay concerns HL60 cells. Put plainly: Anti-cancer activity test, MTT, HL60 cells. In kind it is cell-based. The following applies: Homo sapiens, HL-60, culturing for 72 hours. On the procedure:
Cell culture medium: Roswell medium RPMI-1640 (+L-glutamine) was added with 10% fetal bovine serum, with 100 units penicillin and 100 μg streptomycin per ml.
Cell culture conditions: 5% CO2, 95% humidity, cultured at 37° C. constant temperature.
2. Cell Inoculation, Drugs Dosing and Culture.
Logarithmic growth phase HL-60, human chronic myeloid leukemia cells (K562), human esophageal squamous cell carcinoma cells (KYSE510), human large cell lung cancer cells (H460) were inoculated into 96-well cell culture plates, 2×10^4 cells per well. Different concentrations of active compounds (dissolved in dimethyl sulfoxide (DMSO) stock solution) were added, so that the final concentration of DMSO was 0.2%, and the control group was DMSO. Each group was repeated three times.
After culturing for 72 hours, 20 µL of thiazolyl blue (MTT) (5 mg/ml, ready for use, dissolved in 1×PBS for cell culture) was added to each well, and incubated at 37° C. for 3 hours.
The 96-well cell culture plates were centrifuged at 1000 rpm for 10 minutes. The supernatant was discarded; 200 μL of DMSO was added to each well and the plate was shaken for 5 minutes.
The absorbance of each well was detected at 570 nm wavelength with a microplate reader, and the IC50 of the compounds was calculated.

The IC50 is the concentration needed to halve the response being measured. Read a high IC50 as weaker potency.

As for `CC(C)C[C@H](NC(=O)CNC(=O)OCC1c2ccccc2-c2ccccc21)B1O[C@@H]2C[C@@H]3C[C@@H](C3(C)C)[C@]2(C)O1` [Compound A51], the IC50 is below 100 nM.

For `COc1ccc2cc(C(=O)N[C@@H](Cc3c[nH]c4ccccc34)C(=O)N[C@@H](CC(C)C)B3O[C@@H]4C[C@@H]5C[C@@H](C5(C)C)[C@]4(C)O3)ccc2c1` [Compound A52], the half-inhibitory concentration (IC50) was below 100 nM.

Take `CC(C)C[C@H](NC(=O)[C@H](C)NC(=O)c1ccc2c(c1)C(=O)N(C1CCC(=O)NC1=O)C2=O)B1O[C@@H]2C[C@@H]3C[C@@H](C3(C)C)[C@]2(C)O1` (some centres unmarked) [Compound A53]: the IC50 lay in the range of 2000 to 10000 nM.

In turn, `CC(C)C[C@H](NC(=O)[C@H](C)NC(=O)c1cccc2c1C(=O)N(C1CCC(=O)NC1=O)C2=O)B1O[C@@H]2C[C@@H]3C[C@@H](C3(C)C)[C@]2(C)O1` (some centres unmarked) [Compound A54] registered a 50% inhibitory concentration (IC50) of 2000 to 10000 nM.

Take `CC(C)C[C@H](NC(=O)[C@H](CC(C)C)NC(=O)CN(c1ccccc1)c1ccccc1)B1O[C@@H]2C[C@@H]3C[C@@H](C3(C)C)[C@]2(C)O1` [Compound A55]: the half-inhibitory concentration (IC50) was in the range of 500 to 2000 nM.

Molecule `CC(C)C[C@H](NC(=O)[C@H](CC(C)C)NC(=O)Cn1c2ccccc2c2cccnc21)B1O[C@@H]2C[C@@H]3C[C@@H](C3(C)C)[C@]2(C)O1` [Compound A56] displayed a half-maximal inhibitory concentration (IC50) of 500 to 2000 nM.

`COc1ccc2c3ccccc3n(CC(=O)N[C@@H](CC(C)C)C(=O)N[C@@H](CC(C)C)B3O[C@@H]4C[C@@H]5C[C@@H](C5(C)C)[C@]4(C)O3)c2c1` [Compound A57] had an IC50 of 500 to 2000 nM.

`CC(C)C[C@H](NC(=O)[C@H](CC(C)C)NC(=O)Cn1c2ccccc2c2cnccc21)B1O[C@@H]2C[C@@H]3C[C@@H](C3(C)C)[C@]2(C)O1` [Compound A58]: the IC50 fell in the range of 100 to 500 nM.

For `CC(C)C[C@H](NC(=O)[C@H](CC(C)C)NC(=O)Cn1c2ccc(Cl)cc2c2cc(Cl)ccc21)B1O[C@@H]2C[C@@H]3C[C@@H](C3(C)C)[C@]2(C)O1` [Compound A59], the half-inhibitory concentration (IC50) fell in the range of 500 to 2000 nM.

Regarding `CC(C)C[C@H](NC(=O)[C@H](CC(C)C)NC(=O)Cn1c2ccccc2c2cc(F)ccc21)B1O[C@@H]2C[C@@H]3C[C@@H](C3(C)C)[C@]2(C)O1` [Compound A60], the IC50 was 500 to 2000 nM.

`CC(C)C[C@H](NC(=O)[C@H](CC(C)C)NC(=O)Cn1c2ccccc2c2ccc(C#N)cc21)B1O[C@@H]2C[C@@H]3C[C@@H](C3(C)C)[C@]2(C)O1` [Compound A61] displayed an IC50 of 100 to 500 nM.

As for `CC(C)C[C@H](NC(=O)[C@H](CC(C)C)NC(=O)Cn1c2ccccc2c2ccc(Br)cc21)B1O[C@@H]2C[C@@H]3C[C@@H](C3(C)C)[C@]2(C)O1` [Compound A62], the IC50 was 100 to 500 nM.

`CC(C)C[C@H](NC(=O)[C@H](CC(C)C)NC(=O)Cn1c2ccccc2c2ncccc21)B1O[C@@H]2C[C@@H]3C[C@@H](C3(C)C)[C@]2(C)O1` [Compound A63] registered a concentration for half-maximal inhibition (IC50) of 100 to 500 nM.

In turn, `CC(C)C[C@H](NC(=O)[C@H](CC(C)C)NC(=O)Cn1c2ncccc2c2cccnc21)B1O[C@@H]2C[C@@H]3C[C@@H](C3(C)C)[C@]2(C)O1` [Compound A64] returned a 50% inhibitory concentration (IC50) of 500 to 2000 nM.

`CC(C)C[C@H](NC(=O)[C@H](CC(C)C)NC(=O)OCC1c2ccccc2-c2ccccc21)B(O)O` [Compound A65] yielded an IC50 below 100 nM.

As to `CC(C)C[C@H](NC(=O)[C@H](Cc1c[nH]c2ccccc12)NC(=O)OCc1ccccc1)B(O)O` [Compound A66], the concentration for half-maximal inhibition (IC50) is below 100 nM.

`CC(C)C[C@H](NC(=O)[C@H](Cc1c[nH]c2ccccc12)NC(=O)CC12CC3CC(CC(C3)C1)C2)B(O)O` [Compound A68] yielded a half-maximal inhibitory concentration (IC50) of 100 to 500 nM.

For `CC(C)C[C@H](NC(=O)[C@H](Cc1c[nH]c2ccccc12)NC(=O)CC1CC1)B(O)O` [Compound A70], the IC50 was below 100 nM.

The molecule `CC(C)C[C@H](NC(=O)[C@H](Cc1c[nH]c2ccccc12)NS(=O)(=O)Cc1ccccc1)B(O)O` [Compound A71] showed a half-maximal inhibitory concentration (IC50) below 100 nM.

Regarding `CC(C)C[C@H](NC(=O)[C@H](Cc1c[nH]c2ccccc12)NC(=O)c1ccncc1)B(O)O` [Compound A72], the IC50 lay within 500 to 2000 nM.
